# According to patent US7888372B2, “Compositions and methods for modulating bone mineral deposition” (National Institutes of Health (NIH), priority 2001, dated 2011):
# T1: TNAP activity (Mus musculus, UniProt P09242)
# T1 sequence (P09242 18-501): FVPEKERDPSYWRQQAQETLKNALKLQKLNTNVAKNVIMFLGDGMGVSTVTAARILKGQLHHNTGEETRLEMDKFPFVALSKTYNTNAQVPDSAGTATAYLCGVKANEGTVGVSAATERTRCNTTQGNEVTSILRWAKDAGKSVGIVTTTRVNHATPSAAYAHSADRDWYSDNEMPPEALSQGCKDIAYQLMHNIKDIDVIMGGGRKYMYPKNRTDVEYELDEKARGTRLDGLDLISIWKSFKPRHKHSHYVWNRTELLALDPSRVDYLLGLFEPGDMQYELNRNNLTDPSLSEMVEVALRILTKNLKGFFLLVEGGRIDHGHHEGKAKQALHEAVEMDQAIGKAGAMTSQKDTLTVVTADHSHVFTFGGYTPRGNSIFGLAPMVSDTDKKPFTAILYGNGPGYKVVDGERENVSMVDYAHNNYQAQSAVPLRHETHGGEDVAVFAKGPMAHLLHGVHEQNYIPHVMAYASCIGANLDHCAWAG
# Legend:
# TNAP knock-out mice = TNAP knock-out mice of Waymire et al.; cited from earlier work
# [1] = test system: PC-1-/- osteoblast cultures; experiment: Addition of recombinant proteins or PPi to PC-1-/- osteoblast cultures; assay type: cell-based, mouse
# [2] = test system: ank/ank osteoblast cultures; experiment: Addition of recombinant proteins or PPi to ank/ank osteoblast cultures; assay type: cell-based, mouse
# TNAP activity = biological target: T1, TNAP activity; design: endogenous in cells; conditions: cited from earlier work
# TNAP ko osteoblasts = experiment: Mineralization of bone nodules in primary TNAP ko osteoblast cultures (von Kossa); assay type: cell-based, mouse; conditions: added to the ko osteoblast culture medium
# Experimental: Primary cultures of osteoblasts were isolated from calvariae of 1-4 day old pups that were hybrids of C57Bl/6×129/J mouse strains with wild-type, heterozygote and homozygote TNAP null genotypes. Isolation was performed by a slightly modified version of the time sequential collagenase technique described by Boonekamp et al. (Proc. Kon. Ned. Akad. Wet. B87:371-382, 1984). In brief, calvariae of the same genotype were pooled and three 10 minute incubations in 4 mM EDTA, 137 mM NaCl, 2.7 mM KCl, 3 mM NaH2PO4, pH 7.2, were performed, followed by seven 10 minute digestions in EDTA-free buffer, containing 180 units/ml collagenase type II (Worthington Biochemical Corporation, Lakewood, N.J.). All isolations were performed at 37° C. in a shaking water bath. The last five collagenase digestions, containing an enriched cell population of osteoblastic phenotype, were pooled and seeded at 4×10^4 cells/cm^2 in αMEM (Gibco BRL, Grand Island, N.Y.), containing 10% heat-inactivated FCS, penicillin (50 U/ml) and streptomycin ([…]).
# To study mineralization, we used conditions under which we observed that osteoblasts normally formed von Kossa stain positive and alizarin red positive nodules at 7-10 days in culture. In brief, primary calvarial osteoblasts were cultured in complete αMEM media as described above, supplemented with β-glycerophosphate (10 mM) every third day and L-ascorbic acid (50 μg/ml) daily. MC3T3-E1 cells (Johnson et al., J. Bone Min. Res. 14:883-892, 1999) were maintained in the same medium, and for each experiment were plated at 80% confluence (1×10^6 cells in a 10 cm tissue-culture plastic dish in 5 ml) and received β-glycerophosphate and L-ascorbic acid as for primary osteoblasts above.
# To evaluate the ability of primary osteoblasts to form and mineralize bone nodules in vitro, wild-type (wt), heterozygous and knock-out (ko) osteoblasts were cultured in media supplemented with ascorbic acid, using β-glycerophosphate as phosphate source. […] The extent of bone mineral deposition in these cultures was confirmed by quantifications of deposited calcium. […]
molecule,measurement,setting,value
Cc1ncc(CO)c(CO)c1O.Cl [vitamin B6],epileptic seizures,TNAP knock-out mice,partially rescue the epileptic seizures
same,life span,TNAP knock-out mice,prolonging their life
"O=P(O)(O)OP(=O)(O)O [PPi, inorganic pyrophosphate, reference compound]",osteopontin expression levels,[1]; osteoblast cultures deficient in PC-1,corrected their osteopontin expression levels to those comparable to wild-type
same,osteopontin expression levels,[2]; osteoblast cultures deficient in ANK protein,corrected their osteopontin expression levels to those comparable to wild-type
recombinant osteopontin: recombinant osteopontin added to osteoblast cultures,mineralization capacity (matrix calcification),[1]; PC-1-/- osteoblast cultures,restored to normal
same,mineralization capacity (matrix calcification),[2]; ank/ank osteoblast cultures,restored to normal
c1ccc([C@H]2CN3CCSC3=N2)cc1 [levamisole],kind of inhibitor of TNAP activity,TNAP activity,specific uncompetitive inhibitors of TNAP activity
N=C(N)NCCCC[C@H](N)C(=O)O [L-homoarginine],kind of inhibitor of TNAP activity,TNAP activity,specific uncompetitive inhibitors of TNAP activity
"[V365I]TNAP: enzymatically inactive mutant of TNAP (protein, UniProt P05186 18-501, looked up, variant V365I) Alkaline phosphatase, …: LVPEKEKDPKYWRDQAQETLKYALELQKLNTNVAKNVIMFLGDGMGVSTVTAARILKGQLHHNPGEETRLEMDKFPFVALSKTYNTNAQVPDSAGTATAYLCGVKANEGTVGVSAATERSRCNTTQGNEVTSILRWAKDAGKSVGIVTTTRVNHATPSAAYAHSADRDWYSDNEMPPEALSQGCKDIAYQLMHNIRDIDVIMGGGRKYMYPKNKTDVEYESDEKARGTRLDGLDLVDTWKSFKPRYKHSHFIWNRTELLTLDPHNVDYLLGLFEPGDMQYELNRNNVTDPSLSEMVVVAIQILRKNPKGFFLLVEGGRIDHGHHEGKAKQALHEAVEMDRAIGQAGSLTSSEDTLTVVTADHSHIFTFGGYTPRGNSIFGLAPMLSDTDKKPFTAILYGNGPGYKVVGGERENVSMVDYAHNNYQAQSAVPLRHETHGGEDVAVFSKGPMAHLLHGVHEQNYVPHVMAYAACIGANLGHCAPAS",induction of mineralization,TNAP ko osteoblasts,"nor enzymatically inactive mutants of TNAP, such as [R54C]TNAP or [V365I]TNAP, were able to induce mineralization"
